Assay results taken from US12459972B2, “Protease-activated contrast agents for in vivo imaging” (THE BOARD OF TRUSTEES OF THE LELAND STANFORD JUNIOR …, priority 2015, dated 2025).

Key:
recombinant cathepsin V = recombinant cathepsin V (Homo sapiens, UniProt O60911); assay: Enzyme kinetics / turnover of quenched substrates with recombinant cathepsin V; format: biochemical; details: for Km / kcat: recombinant cathepsin V, 5 nM enzyme; for Km: 50 mM citrate buffer pH 5.5, 37° C., average of three replicates ± standard error; for kcat: citrate buffer pH 5.5, 37° C.; for increase in efficiency, spacer n=6 relative to n=2 analog: Cat V, nCQ and nQC series respectively
Description: (§1) The activity and selectivity of all 6 substrates were determined by monitoring the turnover curves of each internally quenched probe in the presence of various recombinant cysteine proteases, specifically cathepsins L, S, K, B, and V. Equal concentration (5 nM) of each enzyme was incubated with the different probes in 50 mM citrate buffer (pH=5.5, 5 mM DTT, 0.1% triton X, 0.5% CHAPS) at 37° C. The exact concentration of the various cathepsins used were confirmed by active site titration (Boucher et al. (2014) Methods Mol. Biol. 1133:3-39) using the covalent cysteine protease inhibitor ZFK-PMK and the commercial substrates Z-VVR-AMC for cathepsins S, L, B, and V, or Z-KR-AMC for cathepsin K. The rate of increase in Cy5 fluorescence (which is indicative of probe cleavage by cathepsins) was measured for each of the probes.

recombinant cathepsin L = recombinant cathepsin L (Homo sapiens, UniProt P07711); assay: Enzyme kinetics / turnover of quenched substrates with recombinant cathepsin L; format: biochemical; details: for Km / kcat: recombinant cathepsin L, 5 nM enzyme; for Km: 50 mM citrate buffer pH 5.5, 37° C., average of three replicates ± standard error; for kcat: citrate buffer pH 5.5, 37° C.; for increase in catalytic efficiency, spacer n=6 relative to n=2 analog: Cat L, 6CQ vs 2CQ, 6QC vs 2QC
Description: as §1

[1] = test system: 4T1 tumors (tumor associated cysteine cathepsins); assay: Non-invasive imaging with NIR probes in 4T1 breast cancer model, IVIS-spectrum; format: in vivo, mouse; details: 24 hour time course
Excerpt: The optimized substrate probes described above have therefore been tested in a clinically relevant model systems of FGS. […] In these compounds, the Cy5 chromophore was strategically substituted with a similar molecular weight near infrared (NIR) DyLight 780-B1 fluorophore. The compound with a linker having n=6 was chosen based on the optimal turnover numbers by cathepsins in vitro. The QSY21-sulfo quencher was also substituted with IRDye QC-1, which is a dark NIR quencher (FIG. 6A). In addition to being detectable on the camera system of the da Vinci robot, the emission wavelength of the NIR dye (absorption/emission maxima of 783/799 nm) falls within a window with low overall background and will therefore enhance tissue penetration and improve signal to background ratio during imaging. Richards-Kortum and Sevick-Muraca (1996) Annu. Rev. Phys. Chem. 47:555-606. The NIR probes were first analyzed as contrast agents in the 4T1 breast cancer model described above, using the IVIS-spectrum imaging system. Following systemic administration of the contrast agents, mice were imaged non-invasively every hour for 4 hours, and then at 6, 8, 12 and 24 hours post injection of the substrate. […] The intensity of the fluorescence signal in the tumors increased rapidly in mice injected with both types of probes, and it eventually peaked between 4 to 6 hours. […]

[2] = test system: 4T1 tumors (tumor associated cysteine cathepsins); assay: Non-invasive optical imaging with Cy5 substrates, syngeneic orthotopic 4T1 mouse model of breast cancer; format: in vivo; details: for Cy5 fluorescence in frozen tumor sections: 24-hour endpoint, histology; for overall absolute fluorescence intensity in the tumors compared to non-lysosomotropic substrates 2CQ and 6CQ: intravenous, non-invasive imaging
Description: In this model 4T1 cells are inoculated into the left number 1 and 10 mammary fat pad of mice to generate tumors. In order to determine the impact of the LLE, imaging signals of lysosomotropic probes 2QC (compound 5) and 6QC (compound 7) were directly compared to those of the non-lysosomotropic analogues 2CQ (compound 2) and 6CQ (compound 4). Substrates were administered to tumor-bearing mice intravenously, and mice were imaged at various time points following the administration. […] The intensity of the fluorescent signal reached a maximum at 4 hour after administration, followed by a decrease in the signal intensity (FIG. 4B). […] Furthermore, the intensity of the signal remained constant over a period of 24 hours in the tumors of mice administered with the LLE substrates, whereas the signals from the non-LLE substrates were almost completely cleared after 24 hours (FIGS. 4A and 4B). A similar trend was observed by ex vivo imaging of tumors excised from mice that had been euthanized after 4 hours and after 24 hours (FIG. 4C).
In order to determine which populations of cells are responsible for activating the quenched substrate probes in vivo, immunofluorescence staining on frozen sliced sections of tumors isolated from mice injected with each substrate was performed using a macrophage-selective marker CD68. The Cy5 signal of the substrate co-localized to only CD68-positive cells (macrophages), with no signals observed in the 4T1 tumor cell (FIG. 5A). Moreover, Cy5 fluorescence was only observed in tissues from mice that received nQC substrates and not in tissues from mice treated with nCQ substrates (FIG. 5B).

Chain of recombinant cathepsin V (O60911 114-334): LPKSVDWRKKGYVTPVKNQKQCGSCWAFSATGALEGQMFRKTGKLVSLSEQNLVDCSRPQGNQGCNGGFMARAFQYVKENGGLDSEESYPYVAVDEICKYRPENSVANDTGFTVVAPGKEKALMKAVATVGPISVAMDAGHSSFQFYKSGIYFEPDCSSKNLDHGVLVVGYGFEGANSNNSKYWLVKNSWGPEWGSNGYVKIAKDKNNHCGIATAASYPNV
Chain of recombinant cathepsin L (P07711 114-333, species assumed): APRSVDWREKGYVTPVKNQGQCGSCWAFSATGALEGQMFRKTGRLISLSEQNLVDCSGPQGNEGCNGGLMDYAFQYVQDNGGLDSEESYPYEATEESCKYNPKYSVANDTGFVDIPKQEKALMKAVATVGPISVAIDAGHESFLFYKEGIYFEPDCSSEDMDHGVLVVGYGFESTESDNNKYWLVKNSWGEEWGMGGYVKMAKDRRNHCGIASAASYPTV

Row | Km (recombinant cathepsin V) | kcat (recombinant cathepsin V) | Km (recombinant cathepsin L) | kcat (recombinant cathepsin L) | increase in efficiency, spacer n=6 relative to n=2 analog (recombinant cathepsin V) | increase in catalytic efficiency, spacer n=6 relative to n=2 analog (recombinant cathepsin L) | Structure (SMILES) | clearance rate and signal in tumors relative to the non-LLE substrate [1] | Cy5 fluorescence in frozen tumor sections [2] | overall absolute fluorescence intensity in the tumors compared to non-lysosomotropic substrates 2CQ and 6CQ [2]
1 | 3.4 ± 0.3 µM | 0.073 s⁻¹ | 4.6 ± 0.7 µM | 0.283 s⁻¹ |  |  | CC[N+]1=C(C=CC=CC=C2N(CCCCCC(=O)NCCCC[C@H](NC(=O)[C@H](Cc3ccccc3)NC(=O)OCc3ccccc3)C(=O)NCCCCNC(=O)C3CCN(S(=O)(=O)c4ccccc4-c4c5ccc(=[N+]6CCc7cc(S(=O)(=O)O)ccc76)cc-5oc5cc(N6CCc7cc(S(=O)(=O)O)ccc76)ccc45)CC3)c3ccc(S(=O)(=O)O)cc3C2(C)C)C(C)(C)c2cc(S(=O)(=O)O)ccc21 [4CQ] |  |  | 
2 |  |  |  |  |  |  | CCN(CC)c1ccc2c(C(C)(C)C)cc(C=CC=CC=C3N(CCCCCC(=O)NCCCCCCNC(=O)[C@H](CCCCNC(=O)CCCCCN4C(=CC=C5CCCC(C=CC6=[N+](CCCS(=O)(=O)O)c7ccc(N(CCCS(=O)(=O)O)CCCS(=O)(=O)O)cc7C6(C)C)=C5Cl)C(C)(C)c5c4ccc4cc(S(=O)(=O)O)ccc54)NC(=O)[C@H](Cc4ccccc4)NC(=O)OCc4ccccc4)c4ccc(S(=O)(=O)O)cc4C3(C)C)[o+]c2c1 [6QCNIR] | slower clearance rate and brighter signal |  | 
3 | 0.9 ± 0.1 µM | 0.008 s⁻¹ | 6.5 ± 1.5 µM | 0.095 s⁻¹ |  |  | CC[N+]1=C(C=CC=CC=C2N(CCCCCC(=O)NCCNC(=O)[C@H](CCCCNC(=O)C3CCN(S(=O)(=O)c4ccccc4-c4c5ccc(=[N+]6CCc7cc(S(=O)(=O)O)ccc76)cc-5oc5cc(N6CCc7cc(S(=O)(=O)O)ccc76)ccc45)CC3)NC(=O)[C@H](Cc3ccccc3)NC(=O)OCc3ccccc3)c3ccc(S(=O)(=O)O)cc3C2(C)C)C(C)(C)c2cc(S(=O)(=O)O)ccc21 [2QC] |  | observed | higher and brighter
4 | 5 ± 0.4 µM | 0.014 s⁻¹ | 6.4 ± 0.8 µM | 0.141 s⁻¹ |  |  | CC[N+]1=C(C=CC=CC=C2N(CCCCCC(=O)NCCCC[C@H](NC(=O)[C@H](Cc3ccccc3)NC(=O)OCc3ccccc3)C(=O)NCCNC(=O)C3CCN(S(=O)(=O)c4ccccc4-c4c5ccc(=[N+]6CCc7cc(S(=O)(=O)O)ccc76)cc-5oc5cc(N6CCc7cc(S(=O)(=O)O)ccc76)ccc45)CC3)c3ccc(S(=O)(=O)O)cc3C2(C)C)C(C)(C)c2cc(S(=O)(=O)O)ccc21 [2CQ] |  |  | 
5 | 4.8 ± 0.2 µM | 0.188 s⁻¹ | 8.6 ± 1.3 µM | 0.396 s⁻¹ |  |  | CC[N+]1=C(C=CC=CC=C2N(CCCCCC(=O)NCCCCNC(=O)[C@H](CCCCNC(=O)C3CCN(S(=O)(=O)c4ccccc4-c4c5ccc(=[N+]6CCc7cc(S(=O)(=O)O)ccc76)cc-5oc5cc(N6CCc7cc(S(=O)(=O)O)ccc76)ccc45)CC3)NC(=O)[C@H](Cc3ccccc3)NC(=O)OCc3ccccc3)c3ccc(S(=O)(=O)O)cc3C2(C)C)C(C)(C)c2cc(S(=O)(=O)O)ccc21 [4QC] |  |  | 
6 | 6.8 ± 0.4 µM | 0.164 s⁻¹ | 5.4 ± 0.5 µM | 0.487 s⁻¹ | 8 fold | 4 fold | CC[N+]1=C(C=CC=CC=C2N(CCCCCC(=O)NCCCC[C@H](NC(=O)[C@H](Cc3ccccc3)NC(=O)OCc3ccccc3)C(=O)NCCCCCCNC(=O)C3CCN(S(=O)(=O)c4ccccc4-c4c5ccc(=[N+]6CCc7cc(S(=O)(=O)O)ccc76)cc-5oc5cc(N6CCc7cc(S(=O)(=O)O)ccc76)ccc45)CC3)c3ccc(S(=O)(=O)O)cc3C2(C)C)C(C)(C)c2cc(S(=O)(=O)O)ccc21 [6CQ] |  |  | 
7 | 4.4 ± 0.2 µM | 0.150 s⁻¹ | 5.3 ± 0.8 µM | 0.458 s⁻¹ | 4 fold | 6 fold | CC[N+]1=C(C=CC=CC=C2N(CCCCCC(=O)NCCCCCCNC(=O)[C@H](CCCCNC(=O)C3CCN(S(=O)(=O)c4ccccc4-c4c5ccc(=[N+]6CCc7cc(S(=O)(=O)O)ccc76)cc-5oc5cc(N6CCc7cc(S(=O)(=O)O)ccc76)ccc45)CC3)NC(=O)[C@H](Cc3ccccc3)NC(=O)OCc3ccccc3)c3ccc(S(=O)(=O)O)cc3C2(C)C)C(C)(C)c2cc(S(=O)(=O)O)ccc21 [6QC] |  | observed | higher and brighter
